Test results taken from patent US20080032953A1, “Method For Inhibiting Prebiotic Effect Of Food Proteins” (Royal Canin SA,, priority 2004, published 2008).

Key:
[1] = test system: anaerobic microflora; test: Growth of canine oral flora in artificial saliva with soya hydrolysate, with or without tripolyphosphate: anaerobic count; type: cell-based, dog; conditions: for Anaerobic microflora CFU/ml, 24 hours / Anaerobic microflora CFU/ml, 48 hours: Experiment 6, canine flora
Procedure: (§1) For all the experiments, the bacterial microflora of the oral cavity was removed, kept in a conservation medium, and then cultured in artificial saliva according to the following protocol:
(§2) When subsequently used, each tube is thawed at ambient temperature and then incubated for 12 hours at 37° C., in a jar under CO2. The aerobic and anaerobic bacteria are counted according to the methods described hereinafter. The content of each tube is subsequently diluted with the sterile conservation medium so as to have an inoculum of 5000 (3.70 log10) revivable microorganisms in 0.2 ml.
(§3) The anaerobic microflora is cultured and then counted on a Schaedler medium (Biokar) supplemented with 5% of sterile defibrinated sheep blood, incubated at 37° C., in a jar under CO2, for 48 hours.
(§4) The basic artificial saliva is prepared according to table 31 on page 244 of the manual Biological Handbooks—Metabolism, compiled and edited by Philip L. Altman and Dorothy S. Dittmer, published by Federation of American Societies for Experimental Biology, 1968.
(§5) This basic saliva is supplemented with L-cysteine at a rate of 0.5 g/liter in order to lower its redox potential so as to be able to grow therein both the aerobic bacterial microflora and the anaerobic bacterial microflora. The whole will subsequently be referred to as “artificial saliva”.
(§6) The artificial saliva is dispensed into test tubes at a rate of 20 ml per tube. Each tube is supplemented or not supplemented with the protein, in the presence or absence of the phosphate to be tested. Each treatment is composed of two tubes.
(§7) The whole is autoclaved at 110° C. for 15 minutes.
(§8) Each tube is subsequently inoculated with 0.2 ml of inoculum described above. The whole is incubated in an incubator at 37° C., with shaking.
(§9) After 24, 48 or 72 hours of incubation, the aerobic flora and the anaerobic flora are counted according to the methods described above.
(§10) The result of each treatment is the mean of the counts of two test tubes, expressed as log10 of C.F.U. (Colony Forming Units) per ml of artificial saliva.
(§11) In this assay, the inhibitory effect of sodium tripolyphosphate incorporated at 0, 0.5, 1, 1.5 and 2%, on the prebiotic effect of a dehydrated soya hydrolysate (Nurish 1500 IP, ND from Solea Company, having a titer of 83% of total nitrogenous matter) incorporated into the artificial saliva at 0.5 and at 1%, was tested.
(§12) In this assay, oral microflora taken from a dog were used.

[2] = test system: aerobic microflora; test: Growth of cat oral bacterial microflora in artificial saliva with protein, with or without phosphate: aerobic count; type: cell-based
Procedure: as §1
(§13) Two male cats of “European” race, weighing approximately 5.50 kg, were anesthetized with 0.3 ml of a solution of medetomidine at 0.085 g/100 ml (Domitor, ND) and 0.26 ml of a solution of ketamine at […] (Imalgene 1000, ND).
(§14) In each animal thus immobilized, the saliva was sterilely suctioned with a pipette and the base of the teeth, the gums and the gum pockets were scraped with the back of a sterile scalpel.
(§15) All the samples were transferred and well-diluted in 100 ml of a sterile conservation medium (thiocolate resazurin medium from Biokar supplemented with 25% of glycerol). The conservation medium containing the samples was transferred into tubes with microbeads (Cryobilles, ND from AES). These tubes were then incubated for 6 hours in an incubator at 37° C., in a jar under CO2, before being frozen for subsequent use.
as §2
(§16) The aerobic microflora is cultured and then counted on a trypticase soy medium (Biokar) incubated at 37° C. for 48 hours.
as §4, §5, §6, §7, §8, §9, §10

[3] = test system: aerobic microflora; test: Growth of canine oral flora in artificial saliva with soya hydrolysate, with or without tripolyphosphate: aerobic count; type: cell-based, dog; conditions: for Aerobic microflora CFU/ml, 24 hours / Aerobic microflora CFU/ml, 48 hours: Experiment 6, canine flora
Procedure: as §1, §2, §16, §4, §5, §6, §7, §8, §9, §10, §11, §12

[4] = test system: anaerobic microflora; test: Growth of cat oral bacterial microflora in artificial saliva with protein, with or without phosphate: anaerobic count; type: cell-based
Procedure: as §1, §13, §14, §15, §2, §3, §4, §5, §6, §7, §8, §9, §10

[5] = tripolyphosphate 0.5%, soya hydrolysate 0.5%
[6] = tripolyphosphate 0.5%, soya hydrolysate 1%
[7] = tripolyphosphate 1%, soya hydrolysate 0.5%
[8] = tripolyphosphate 1%, soya hydrolysate 1%
[9] = tripolyphosphate 1.5%, soya hydrolysate 0.5%
[10] = tripolyphosphate 1.5%, soya hydrolysate 1%
[11] = tripolyphosphate 2%, soya hydrolysate 0.5%
[12] = tripolyphosphate 2%, soya hydrolysate 1%
[13] = Experiment 6, soya hydrolysate 0.5 and 1%
[14] = Experiment 6, tripolyphosphate incorporation rates greater than or equal to 1%
[15] = Experiment 4, MP9007 1%, tripolyphosphate 0.5%
[16] = Experiment 4, MP9007 1%, tripolyphosphate 1%
[17] = Experiment 4, MP9007 1%, tripolyphosphate 1.5%
[18] = Experiment 4, MP9007 1%, tripolyphosphate 2%
[19] = Experiment 4, sodium tripolyphosphate 0.5-2%, MP9007 1%
[20] = Experiment 5, regardless of the amount incorporated (0.5-2%), soya hydrolysate 1%
[21] = Experiment 5, soya hydrolysate 1%, tripolyphosphate 0.5%
[22] = Experiment 5, soya hydrolysate 1%, tripolyphosphate 1%
[23] = Experiment 5, soya hydrolysate 1%, tripolyphosphate 1.5%
[24] = Experiment 5, soya hydrolysate 1%, tripolyphosphate 2%

With `O=P(O)(O)OP(=O)(O)OP(=O)(O)O` [sodium tripolyphosphate] the “Anaerobic microflora CFU/ml, 24 hours” value [1, 5] was 1.92 log10 CFU/ml, the “Anaerobic microflora CFU/ml, 48 hours” value [1, 5] was 5.80 log10 CFU/ml and the “Anaerobic microflora CFU/ml, 24 hours” value [1, 6] was 6.30 log10 CFU/ml. For the same compound, the “Anaerobic microflora CFU/ml, 48 hours” value [1, 6] was 6.24 log10 CFU/ml, the “Anaerobic microflora CFU/ml, 24 hours” value [1, 7] was less than 3 log10 CFU/ml and the “Anaerobic microflora CFU/ml, 48 hours” value [1, 7] was less than 3 log10 CFU/ml. The “Anaerobic microflora CFU/ml, 24 hours” value [1, 8] was less than 3 log10 CFU/ml, the “Anaerobic microflora CFU/ml, 48 hours” value [1, 8] was 3.30 log10 CFU/ml and the “Anaerobic microflora CFU/ml, 24 hours” value [1, 9] was less than 3 log10 CFU/ml. For the same compound, the “Anaerobic microflora CFU/ml, 48 hours” value [1, 9] was less than 3 log10 CFU/ml, the “Anaerobic microflora CFU/ml, 24 hours” value [1, 10] was less than 3 log10 CFU/ml and the “Anaerobic microflora CFU/ml, 48 hours” value [1, 10] was less than 3 log10 CFU/ml. For the same compound, the “Anaerobic microflora CFU/ml, 24 hours” value [1, 11] was less than 3 log10 CFU/ml, the “Anaerobic microflora CFU/ml, 48 hours” value [1, 11] was less than 3 log10 CFU/ml and the “Anaerobic microflora CFU/ml, 24 hours” value [1, 12] was less than 3 log10 CFU/ml. For the same compound, the “Anaerobic microflora CFU/ml, 48 hours” value [1, 12] was less than 3 log10 CFU/ml, the “Inhibition of the prebiotic effect of soya hydrolysate, canine anaerobic oral microflora (in words)” value [1, 13] was “inhibits the prebiotic effect” and the “Inhibitory effect, canine anaerobic oral microflora (in words)” value [1, 14] was “particularly substantial”. The “Aerobic microflora CFU/ml, 24 hours” value [2, 15] was 5.50 log10 CFU/ml, the “Aerobic microflora CFU/ml, 48 hours” value [2, 15] was 6.90 log10 CFU/ml and the “Aerobic microflora CFU/ml, 24 hours” value [2, 16] was 4.81 log10 CFU/ml. The “Aerobic microflora CFU/ml, 48 hours” value [2, 16] was 6.49 log10 CFU/ml, the “Aerobic microflora CFU/ml, 24 hours” value [2, 17] was 4.84 log10 CFU/ml and the “Aerobic microflora CFU/ml, 48 hours” value [2, 17] was 6.83 log10 CFU/ml. For the same compound, the “Aerobic microflora CFU/ml, 24 hours” value [2, 18] was less than 4.00 log10 CFU/ml, the “Aerobic microflora CFU/ml, 48 hours” value [2, 18] was less than 4.00 log10 CFU/ml and the “Inhibition of the prebiotic effect of the MP9007 protein, aerobic microflora (in words)” value [2, 19] was “significantly inhibits”. For the same compound, the “Inhibition of the prebiotic effect of soya hydrolysate, aerobic microflora (in words)” value [2, 20] was “virtually inhibits the entire prebiotic effect”, the “Aerobic microflora CFU/ml, 24 hours” value [2, 21] was less than 4.00 log10 CFU/ml and the “Aerobic microflora CFU/ml, 48 hours” value [2, 21] was less than 4.00 log10 CFU/ml. The “Aerobic microflora CFU/ml, 24 hours” value [2, 22] was less than 4.00 log10 CFU/ml, the “Aerobic microflora CFU/ml, 48 hours” value [2, 22] was less than 4.00 log10 CFU/ml and the “Aerobic microflora CFU/ml, 24 hours” value [2, 23] was less than 4.00 log10 CFU/ml. The “Aerobic microflora CFU/ml, 48 hours” value [2, 23] was less than 4.00 log10 CFU/ml, the “Aerobic microflora CFU/ml, 24 hours” value [2, 24] was less than 4.00 log10 CFU/ml and the “Aerobic microflora CFU/ml, 48 hours” value [2, 24] was less than 4.00 log10 CFU/ml. The “Aerobic microflora CFU/ml, 24 hours” value [3, 5] was 7.10 log10 CFU/ml, the “Aerobic microflora CFU/ml, 48 hours” value [3, 5] was 7.54 log10 CFU/ml and the “Aerobic microflora CFU/ml, 24 hours” value [3, 6] was 7.50 log10 CFU/ml. The “Aerobic microflora CFU/ml, 48 hours” value [3, 6] was 7.51 log10 CFU/ml, the “Aerobic microflora CFU/ml, 24 hours” value [3, 7] was less than 3 log10 CFU/ml and the “Aerobic microflora CFU/ml, 48 hours” value [3, 7] was less than 3 log10 CFU/ml. The “Aerobic microflora CFU/ml, 24 hours” value [3, 8] was less than 3 log10 CFU/ml, the “Aerobic microflora CFU/ml, 48 hours” value [3, 8] was 3.17 log10 CFU/ml and the “Aerobic microflora CFU/ml, 24 hours” value [3, 9] was less than 3 log10 CFU/ml. For the same compound, the “Aerobic microflora CFU/ml, 48 hours” value [3, 9] was less than 3 log10 CFU/ml, the “Aerobic microflora CFU/ml, 24 hours” value [3, 10] was less than 3 log10 CFU/ml and the “Aerobic microflora CFU/ml, 48 hours” value [3, 10] was less than 3 log10 CFU/ml. For the same compound, the “Aerobic microflora CFU/ml, 24 hours” value [3, 11] was less than 3 log10 CFU/ml, the “Aerobic microflora CFU/ml, 48 hours” value [3, 11] was less than 3 log10 CFU/ml and the “Aerobic microflora CFU/ml, 24 hours” value [3, 12] was less than 3 log10 CFU/ml. For the same compound, the “Aerobic microflora CFU/ml, 48 hours” value [3, 12] was less than 3 log10 CFU/ml, the “Inhibition of the prebiotic effect of soya hydrolysate, canine aerobic oral microflora (in words)” value [3, 13] was “inhibits the prebiotic effect” and the “Inhibitory effect, canine aerobic oral microflora (in words)” value [3, 14] was “particularly substantial”. For the same compound, the “Anaerobic microflora CFU/ml, 24 hours” value [4, 15] was 5.41 log10 CFU/ml, the “Anaerobic microflora CFU/ml, 48 hours” value [4, 15] was 7.04 log10 CFU/ml and the “Anaerobic microflora CFU/ml, 24 hours” value [4, 16] was less than 4.00 log10 CFU/ml. The “Anaerobic microflora CFU/ml, 48 hours” value [4, 16] was 6.36 log10 CFU/ml, the “Anaerobic microflora CFU/ml, 24 hours” value [4, 17] was 4.98 log10 CFU/ml and the “Anaerobic microflora CFU/ml, 48 hours” value [4, 17] was 6.82 log10 CFU/ml. For the same compound, the “Anaerobic microflora CFU/ml, 24 hours” value [4, 18] was less than 4.00 log10 CFU/ml, the “Anaerobic microflora CFU/ml, 48 hours” value [4, 18] was less than 4.00 log10 CFU/ml and the “Inhibition of the prebiotic effect of the MP9007 protein, anaerobic microflora (in words)” value [4, 19] was “significantly inhibits”. The “Inhibition of the prebiotic effect of soya hydrolysate, anaerobic microflora (in words)” value [4, 20] was “virtually inhibits the entire prebiotic effect”, the “Anaerobic microflora CFU/ml, 24 hours” value [4, 21] was less than 4.00 log10 CFU/ml and the “Anaerobic microflora CFU/ml, 48 hours” value [4, 21] was less than 4.00 log10 CFU/ml. The “Anaerobic microflora CFU/ml, 24 hours” value [4, 22] was less than 4.00 log10 CFU/ml, the “Anaerobic microflora CFU/ml, 48 hours” value [4, 22] was less than 4.00 log10 CFU/ml and the “Anaerobic microflora CFU/ml, 24 hours” value [4, 23] was less than 4.00 log10 CFU/ml. The “Anaerobic microflora CFU/ml, 48 hours” value [4, 23] was less than 4.00 log10 CFU/ml, the “Anaerobic microflora CFU/ml, 24 hours” value [4, 24] was less than 4.00 log10 CFU/ml and the “Anaerobic microflora CFU/ml, 48 hours” value [4, 24] was less than 4.00 log10 CFU/ml.
